Test results taken from patent publication US20190376971A1, “Compositions and Methods for the Assessment of Drug Target Occupancy for Bruton's Tyrosine Kinase” (Acerta Pharma B.V., priority 2017, published 2019).

Legend:
[1] = molecular target: T1, BTK (Homo sapiens, UniProt Q06187); experiment: Binding of BODIPY/fluorescent probes to recombinant BTK, SDS-PAGE in-gel fluorescence; settings: probe 0.1 μM, 2 hours
Experimental: To test different BTK target occupancy probes and lysis buffers, probes were incubated with recombinant BTK protein for 2 hours and subsequently run using sodium dodecyl sulfate polyacrylamide gel electrophoresis (SDS PAGE). When using the boron-dipyrromethene (BODIPY) tagged probes (such as Formula (5) and Formula (6)), the gel is measured directly using a fluorescence imager. BTK probe (final concentration 0.1 μM) is incubated with 125 ng BTK for 2 hours at room temperature. Afterwards, sample buffer is added and run on a SDS-PAGE gel. Fluorescent probes such as Formula (5) and Formula (6) are quantified in gel using the E tan Imager from GE Healthcare, suitable for the emission and detection of fluorescent signal for BODIPY tags.
(§1) SDS-PAGE procedures are known to those of ordinary skill in the art. A non-limiting example of a SDS-PAGE procedure is as follows: • 1. Add 1.1 μL of probe to 10 μL of each sample (recombinant BTK or cell lysate); final probe concentration 0.1 μM. • 2. Incubate 2 hour at room temperature. • 3. Add 4 μL sample buffer/DTT (200 μM) and incubate for 5 minutes at 95° C. • 4. Vortex and keep on ice until loading on gel. • 5. Spin down shortly and load 15 μL on a 12 slot Novex gradient gel (4-12% Bis-Tris gel). • 6. Run in NuPage MOPS SDS running buffer. • 7. After running the samples on gel, remove the gel from the surelock holder. • 8. For the samples on gel with the fluorescent probe, the gels are measured directly using an imager suitable for measuring the fluorescent label on the probes (e.g., E tan Imager; GE Healthcare (Cy2: 480/30 excitation, 530/40 emission, Cy3: 544 excitation, 570 emission). • 9. For the biotin labeled probes, the gel is blotted to a PVDF membrane, using the Western blot procedure below.
Target sequence in this assay (Q06187 whole entry, species assumed): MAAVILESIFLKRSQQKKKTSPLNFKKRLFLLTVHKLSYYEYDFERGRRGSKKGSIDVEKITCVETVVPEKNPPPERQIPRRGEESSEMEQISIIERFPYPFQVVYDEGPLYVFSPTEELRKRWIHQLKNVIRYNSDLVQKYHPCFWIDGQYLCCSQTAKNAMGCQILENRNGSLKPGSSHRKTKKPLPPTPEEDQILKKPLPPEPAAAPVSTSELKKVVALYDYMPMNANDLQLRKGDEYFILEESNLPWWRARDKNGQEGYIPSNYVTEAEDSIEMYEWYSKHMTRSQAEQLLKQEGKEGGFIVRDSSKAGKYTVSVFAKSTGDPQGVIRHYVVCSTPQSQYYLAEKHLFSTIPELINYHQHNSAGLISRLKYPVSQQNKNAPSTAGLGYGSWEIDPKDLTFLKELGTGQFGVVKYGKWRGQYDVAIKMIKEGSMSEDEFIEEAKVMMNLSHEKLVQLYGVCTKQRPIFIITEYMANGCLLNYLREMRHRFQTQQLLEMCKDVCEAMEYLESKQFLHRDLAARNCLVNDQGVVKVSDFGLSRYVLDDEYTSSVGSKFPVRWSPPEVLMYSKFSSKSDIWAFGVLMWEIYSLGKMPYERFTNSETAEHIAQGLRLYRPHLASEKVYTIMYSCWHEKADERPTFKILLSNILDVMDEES

[2] = molecular target: T1, BTK; experiment: BTK IMAP (immobilized metal ion affinity-based fluorescence polarization) assay; format: biochemical; set-up: endogenous in cells; host or cells: Ramos B cells (Ramos.2G6.4C10); settings: 5 μM ATP, 60 min pre-incubation, read-out: IC50 for BTK inhibition
Experimental: In summary, BTK enzyme activity is measured using the IMAP (immobilized metal ion affinity-based fluorescence polarization) assay as outlined below. […] After 60 minutes of incubation at room temperature in the dark, the FP signal is read. Fluorescence at 535 nm is measured using parallel and perpendicular filters to determine differences in rotation due to binding of the phosphorylated substrate peptide to the beads. Values are calculated as a percentage of the difference in readout (ΔmPi) of the controls with and without ATP.
Inhibition of the activity of the protein kinase BTK can be measured with the assay described in this protocol. […] The method is based on IMAP, which is a homogeneous fluorescence polarization (FP) assay based on affinity capture of phosphorylated peptide substrates. […]
Target sequence in this assay (Q06187 whole entry): as the sequence (Q06187 whole entry, species assumed) above

[3] = molecular target: T1, BTK; experiment: Binding of biotin probes to recombinant BTK, Western blot with Streptavadin-HRP; settings: PBS, lysis buffer 1 or lysis buffer 2
Experimental: For the biotin probes (such as Formula (3) and Formula (4)), samples are run using SDS-PAGE gel, followed by transferring the protein to a polyvinylidene fluoride (PVDF) membrane by Western blotting. Subsequently, the blot is blocked overnight at 4° C. in TBS-T (10 mM TRIS pH 7.4, 100 mM NaCl, 0.1% Tween 20)+2.5% (w/v) skimmed milk powder). The blot is washed 4× with TBS-T and then incubated with Streptavadin-HRP for 1 hour at room temperature. The blot is washed again 4× with TBS-T before adding the chemiluminescent substrate, followed by measurement of the chemiluminescence signal.
as §1, with “Spin down shortly and load 15 μL on a 12 slot Novex gradient gel (4-12% Bis-Tris gel). • 6. Run in NuPage MOPS SDS running buffer. • 7. After running the samples on gel, remove the gel from the surelock holder. • 8.” left out, “below. […]” for “below.”
Target sequence in this assay (Q06187 whole entry, species assumed): as above

[4] = lysis buffer 2 (1% Triton X100)

Structure (SMILES): Cc1cc(C)n2c1C=C1C=CC(CCC(=O)NCCN3CCN(C/C=C/C(=O)N4CCC[C@H]4c4nc(-c5ccc(C(=O)Nc6ccccn6)cc5)c5c(N)nccn45)CC3)=[N+]1[B-]2(F)F [Formula (5)]
- binding to recombinant BTK (fluorescence signal in gel) ([1]; PBS or lysis buffer 1): clear binding
- binding to recombinant BTK (fluorescence signal in gel) [1, 4]: minimal

Structure (SMILES): Nc1nccn2c([C@@H]3CCCN3C(=O)/C=C/CN3CCN(CCNC(=O)CCCC(=O)NCCCOCCOCCOCCCNC(=O)CCCC[C@@H]4SC[C@@H]5NC(=O)N[C@@H]54)CC3)nc(-c3ccc(C(=O)Nc4nccs4)cc3)c12 [Formula (6)]
- binding to recombinant BTK (fluorescence signal in gel) ([1]; PBS or lysis buffer 1): clear binding
- binding to recombinant BTK (fluorescence signal in gel) [1, 4]: no detectable binding

Structure (SMILES): Nc1nccn2c([C@@H]3CCCCN3C(=O)/C=C/CN3CCN(CCNC(=O)CCCC(=O)NCCCOCCOCCOCCCNC(=O)CCCC[C@@H]4SC[C@@H]5NC(=O)N[C@@H]54)CC3)nc(-c3ccc(C(=O)Nc4ccccn4)cc3)c12 [Formula (3), N-[3-[2-[2-[3-[5-[(3aS,4S,6aR)-2-oxo-1,3,3a,4,6,6a-hexahydrothieno[3,4-d]imidazol-4-yl]pentanoylamino]propoxy]ethoxy]ethoxy]propyl]-N′-[2-[4-[(E)-4-[(2S)-2-[8-amino-1-[4-(2-pyridylcarbamoyl)phenyl]imidazo[1,5-a]pyrazin-3-yl]-1-piperidyl]-4-oxo-but-2-enyl]piperazin-1-yl]ethyl]pentanediamide]
- IC50 [2]: 3.4 nM
- signal of biotin probe bound to BTK (Streptavadin-HRP chemiluminescence) [3]: stronger signal

Structure (SMILES): COc1ccc(-c2ccc3n2[B-](F)(F)[N+]2=C(C)C(CCC(=O)NCCN4CCN(C/C=C/C(=O)N5CCC[C@H]5c5nc(-c6ccc(C(=O)Nc7ccccn7)cc6)c6c(N)nccn56)CC4)=C(C)C2=C3)cc1 [Formula (4)]
- IC50 [2]: 1.5 nM
